Results on 16 compounds are retold here after ChEMBL document CHEMBL1122107, “Structure-antitumor activity relationships of 9-anilinoacridines using pattern recognition” (1982).

The test system of this assay is L1210. The assay is described as follows: Tumor cell selectivity determined as maximal percent increase in life span (ILSmax) at LD10 dosage level in L1210 cells. The format is functional, Mus musculus.
Consider `Nc1ccc(S(=O)(=O)Nc2ccc(Nc3c4ccccc4nc4ccccc34)cc2)cc1`, for which the ILSmax came out at 100%.

`O=C(O)CCc1ccc(Nc2c3ccccc3nc3ccccc23)cc1` showed an ILSmax of 162%.

`Cc1cccc2c(Nc3ccc(NS(=O)(=O)c4ccc(N)cc4)cc3)c3ccccc3nc12` displayed an ILSmax of 55%.

Compound `N=C(N)NCCCCS(=O)(=O)Nc1ccc(Nc2c3ccccc3nc3ccccc23)cc1` returned an ILSmax of 25%.

Turning to `CCCCCS(=O)(=O)Nc1ccc(Nc2c3ccccc3nc3ncccc23)c(OC)c1`, the ILSmax is 76%.

`CS(=O)(=O)Nc1ccc(Nc2c3ccccc3nc3cc(O)ccc23)cc1` registered an ILSmax of 72%.

With `CCCCCCCCS(=O)(=O)Nc1ccc(Nc2c3ccccc3nc3ccccc23)c(OC)c1`, the ILSmax came to 40%.

`COc1cc(NS(C)(=O)=O)ccc1Nc1c2ccccc2nc2cc(Br)c(N)cc12` gave an ILSmax of 99%.

In turn, `CCCCC(=O)N(c1ccc(Nc2c3ccccc3nc3c(C)cccc23)c(OC)c1)S(C)(=O)=O` came in with an ILSmax of 50%.

Turning to `CC(=O)Nc1ccc2c(Nc3ccc(NS(C)(=O)=O)cc3)c3cccc(C)c3nc2c1C`, the ILSmax is listed as 60%.

Take `NCCC(=O)NCCS(=O)(=O)Nc1ccc(Nc2c3ccccc3nc3ccccc23)cc1`: the ILSmax is recorded as 25%.

`CCCOc1cccc2c(Nc3ccc(NS(C)(=O)=O)cc3)c3ccccc3nc12`: the ILSmax stood at 100%.

In turn, `Fc1ccc(Nc2c3ccccc3nc3ccccc23)cc1` displayed an ILSmax of 25%.

Consider `COc1cc(NS(=O)(=O)CCCCN)ccc1Nc1c2ccccc2nc2c(C(N)=O)cccc12`, for which the ILSmax is given as 25%.

As for `COc1cc(NS(C)(=O)=O)ccc1N=c1c2ccccc2[nH]c2c(CN(C)C)cccc12`, the ILSmax came out at 72%.

In the case of `CS(=O)(=O)Nc1ccc(Nc2c3ccccc3nc3ccccc23)c(N)c1`, the ILSmax is listed as 105%.
